Key:
[1] = tested on: FOXO3a-GFP; assay: FOXO3a translocation in MCF-7 cells; settings: E2 10 nM, G-1 100 nM, AB-1 1 μM, EGF 50 ng/mL
[2] = tested on: GPER over ERα; settings: ref Dennis et al., 2011; cited from earlier work
[3] = tested on: ERβ-GFP; settings: COS7 cells; 1 nM E2 or 1 μM AB-1
[4] = tested on: uterus of ovariectomized mice; assay: Mouse uterine estrogenicity: uterine wet weight; type: in vivo; settings: dose of 10 ng; subcutaneous; 18 h
[5] = tested on: ERβ-GFP
[6] = tested on: ERβ-GFP; settings: COS7 cells; 1 nM E2 or 1 μM AB-1; 15 min
[7] = molecular target: T1, ERα (Homo sapiens, UniProt P03372); settings: MCF-7 cells; 24 h; Western blot
T1 sequence (P03372 1-595): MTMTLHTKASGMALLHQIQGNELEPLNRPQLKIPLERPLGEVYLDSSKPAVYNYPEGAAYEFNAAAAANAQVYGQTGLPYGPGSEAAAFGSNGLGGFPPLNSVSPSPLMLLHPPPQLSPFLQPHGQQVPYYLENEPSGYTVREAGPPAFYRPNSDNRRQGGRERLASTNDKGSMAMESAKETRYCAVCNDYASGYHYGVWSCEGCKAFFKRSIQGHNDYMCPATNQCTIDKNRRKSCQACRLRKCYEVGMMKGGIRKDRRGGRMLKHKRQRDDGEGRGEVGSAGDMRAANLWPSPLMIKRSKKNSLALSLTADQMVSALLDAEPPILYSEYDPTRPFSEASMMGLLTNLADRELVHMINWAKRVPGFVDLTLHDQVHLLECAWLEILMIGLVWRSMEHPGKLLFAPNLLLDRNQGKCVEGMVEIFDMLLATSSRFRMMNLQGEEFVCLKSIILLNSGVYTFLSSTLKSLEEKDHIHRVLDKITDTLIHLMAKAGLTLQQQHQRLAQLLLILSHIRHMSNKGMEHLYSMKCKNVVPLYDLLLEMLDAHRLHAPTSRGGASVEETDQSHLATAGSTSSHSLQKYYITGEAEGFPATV

[8] = tested on: ERα over ERβ; settings: ref Stauffer et al., 2000; cited from earlier work

CC(=O)c1ccc2c(c1)[C@@H]1C=CC[C@@H]1[C@H](c1cc3c(cc1Br)OCO3)N2 [G-1]
FOXO3a translocation from nucleus to cytoplasm [1]: stimulated cytosolic translocation
Selectivity for GPER over ERα [2]: > 10^5 fold

EGF: growth factor that stimulates the PI3K pathway (NSDSECPLSHDGYCLHDGVCMYIEALDKYACNCVVGYIGERCQYRDLKWWELR; UniProt P01133 971-1023, looked up)
FOXO3a translocation from nucleus to cytoplasm [1]: translocated from the nucleus to the cytoplasm

C[C@]12CC[C@@H]3c4ccc(O)cc4CC[C@H]3[C@@H]1CC[C@@H]2O [E2, 17β-estradiol]
FOXO3a translocation from nucleus to cytoplasm [1]: stimulated cytosolic translocation
Induction of calcium mobilization, ERβ [3]: induced rapid calcium mobilization
Imbibition response [4]: strong imbibition response
Block of E2-Alexa633 binding to ERβ-GFP (confocal) [5]: blocked binding of E2-Alexa633
PI3K activation (nuclear translocation of PH-mRFP1), ERβ [6]: induced strong nuclear localization of the PH-mRFP1 reporter

C[C@]12CC[C@@H]3c4ccc(O)cc4C[C@@H](CCCCCCCCC[S+]([O-])CCCC(F)(F)C(F)(F)F)[C@H]3[C@@H]1CC[C@@H]2O (stereo partly shown) [ICI182,780]
Effect on ERα levels [7]: potently decreased

CCCc1c(-c2ccc(O)cc2)nn(-c2ccc(O)cc2)c1-c1ccc(O)cc1 [PPT]
Selectivity for ERα over ERβ [8]: about 400 fold
